Source: patent publication US10869858B2, “Therapeutic agent for amyotrophic disorders” (TOHOKU UNIVERSITY, priority 2015, dated 2020)

Legend:
[1] = tested on: ALS patient-derived fibroblasts; assay: Inhibitory effect on cell death of ALS patient-derived fibroblasts induced by oxidative stress (BSO 100 μmol/L), Method 1, Cell Counting Kit-8; assay type: cell-based; details: 100 μmol/L BSO; compound at 10 and 30 μmol/L; two days with compound; FIG. 1
Description: (§1) ALS patient-derived fibroblasts can be used to confirm the inhibitory effect of the compound of the present invention on cell death induced by treating the ALS patient-derived fibroblasts with the glutathione synthesis inhibitor, L-buthionine(S, R)sulfoximine (BSO).
6.4×10^3 Cells per well of ALS patient-derived fibroblasts were seeded in a 96-well cell culture plate using a DMEM medium containing 1% FBS. One day after cell seeding, BSO was mixed in the culture medium so that the concentration thereof was 100 μmol/L. After culturing in the presence of BSO for one day, the compound of Example 1 was mixed in the culture medium so that the concentration thereof is 1, 3, 10 or 30 μmol/L. After culturing in the presence of the compound for another two days, the number of living cells in each well was counted by using Cell Counting Kit-8 (manufactured by Dojindo Laboratories) to calculate cell viability. Here, wells to which both BSO and the compound were not added but distilled water and DMSO that were solvents for BSO and the compound, respectively were added were used as a control of the oxidative stress loading; wells to which both BSO and the compound were added were used as a control for the effect of the test compound.

[2] = tested on: ALS patient-derived fibroblasts; assay: Cell viability of ALS patient-derived fibroblasts treated with BSO 500 μmol/L, Method 2, Cell Counting Kit-8; assay type: cell-based; details: 500 μmol/L BSO; compound at 0.1, 0.3, 1, 3 and 10 μmol/L; three days with compound; FIG. 2
Description: as §1
(§2) 3.0×10^3 Cells per well of ALS patient-derived fibroblasts were seeded in a 96-well cell culture plate using a DMEM (low glucose) medium containing 1% FBS. One day after cell seeding, BSO was mixed in the culture medium so that the concentration thereof is 500 μmol/L. After culturing in the presence of BSO for one day, the compound of Example 1 was mixed in the culture medium so that the concentration thereof is 0.1, 0.3, 1, 3 or 10 μmol/L. After culturing in the presence of the compound for another three days, the number of living cells in each well was counted by using Cell Counting Kit-8 (manufactured by Dojindo Laboratories) to calculate cell viability. In addition, the degree of cell damage was measured by using LDH Cytotoxicity Detection Kit (manufactured by Takara Bio Inc.). Here, wells to which both BSO and the compound were not added but distilled water and DMSO that were solvents for BSO and the compound, respectively were added were used as a control of the oxidative stress loading; wells to which both BSO and the compound were added were used as a control for the effect of the test compound.

[3] = tested on: ALS patient-derived fibroblasts; assay: Degree of cell damage of ALS patient-derived fibroblasts treated with BSO 500 μmol/L, Method 2, LDH Cytotoxicity Detection Kit; assay type: cell-based; details: 500 μmol/L BSO; compound at 0.1, 0.3, 1, 3 and 10 μmol/L; three days with compound; FIG. 2
Description: as §1, §2

wobbler mice = assay: Rotarod test in ALS animal models (wobbler mice); assay type: in vivo; details: 150 mg/kg orally once a day, 16 days after administration start, 10 rpm, n=14; control group 43%; P=0.018
Description: To 4-week-old wobbler mice, the compound of Example 1 (150 mg/kg) or a solvent, a 0.5% aqueous solution of methyl cellulose as a control was orally administered at a rate of 10 mL/kg once a day. Sixteen days after administration start date, the animals were placed on a mouse rotarod (manufactured by Muromachi Kikai Co., Ltd.) set at a rotation speed of 10 rpm and the time to fall was measured (rotarod test). The rotarod walking time was measured three times, and the upper limit of one measurement time was 300 seconds.

Structure (SMILES): O=C(CC(C(=O)O)c1c[nH]c2ccccc12)c1ccc(F)cc1F (stereo not shown) [Example 1, 4-(2,4-difluorophenyl)-2-(1H-indol-3-yl)-4-oxobutanoic acid]
- inhibition of cell death induced by BSO (cell viability) [1]: statistically significantly inhibited cell death
- prevention of low cell viability induced by BSO [2]: statistically significantly prevented the low cell viability
- prevention of cytotoxicity (degree of cell damage, LDH) induced by BSO [3]: statistically significantly prevented
- occurrence ratio of animals whose rotarod walking time exceeded 300 seconds (wobbler mice): 86%
